Test results: PMC11218446, “Antibacterial efficacy and membrane mechanism of action of the Serratia-derived non-ionic lipopeptide, serrawettin W2-FL10” (Microbiology Spectrum, 2024)
Values after ≈ are worked out from the molar mass of the structure shown. Read-outs that look alike come from different tables or passages of the source.

Key:
Type in all cases: cell-based, Staphylococcus aureus
[1] = test system: S. aureus RN4220; conditions: for ICF / IC50 ± SE / MIC ± SE: resazurin
From the text: Based on the broth microdilution assay results for W2-FL10 and melittin, the S. aureus ATCC 25923 (reference), S. aureus RN4220 (laboratory; MSSA), or methicillin-resistant S. aureus Xen 30 (clinical; MRSA) strains were selected for further antibacterial studies. Resazurin (also referred to as Alamar Blue) is a blue, non-fluorescent dye that can be reduced to resorufin (a pink, fluorescent compound) by metabolically active cells. The dye can thus be used as a quantitative indicator of cell viability ([52]). Therefore, a broth microdilution assay coupled with resazurin [prepared to a stock solution of 0.3 mg/mL in PBS; ([53])] was used to determine the influence of cations (Mg^2+ and Ca^2+), commercial LTA of S. aureus and DOPG on the potency of W2-FL10 against S. aureus ATCC 25923, S. aureus RN4220 and MRSA Xen 30 as described by Wu et al. ([54]).
For investigating the influence of cations on the antibacterial potency of W2-FL10, a clear 96-well plate was prepared with W2-FL10 and air dried as described in the “Antibacterial activity: broth microdilution assay” section. The S. aureus strains were inoculated into MHB or CA-MHB, grown to mid-log phase (OD600 of 0.5–0.6), and diluted to OD600 of 0.4. A 1:20 dilution of the test strain (final concentration of ∼10^5 CFU/mL) was prepared and 100 µL was dispensed into each well (final concentration of W2-FL10 at 1.56 to 25 µg/mL). Sterile broth (i.e., MHB or CA-MHB) and the OD-adjusted inoculum were included in the assay as a positive control, while sterile broth (i.e., MHB or CA-MHB) was included as a sterility control. The plate was incubated for 24 h at 37°C.
Similarly, the possible interaction and binding of LTA of S. aureus and DOPG (both at 1 mg/mL in 10% EtOH) with the lipopeptide W2-FL10 was investigated ([54]). Briefly, a clear 96-well plate was prepared with W2-FL10 and air dried as described in the “Antibacterial activity: broth microdilution assay” section. Thereafter, 10 µL of LTA from S. aureus or DOPG was dispensed into the respective wells. The S. aureus strains were grown to mid-log phase in MHB (OD600 of 0.5–0.6) and diluted to OD600 of 0.4. A 1:20 dilution of test strain (final concentration of ∼10^5 CFU/mL) was prepared, 100 µL was dispensed into each well (final concentration of W2-FL10 at 3.13 to 100 µg/mL), and the plate was incubated for 24 h at 37°C. Sterile broth, the OD-adjusted inoculum, and the respective LTA or DOPG were included in the assay as a positive control, while sterile broth and LTA or DOPG were included as a sterility control.
After incubation of both plates, 10 µL of resazurin (0.3 mg/mL) was added to each well and the plate was incubated at 37°C for 1 h. Fluorometric readings of the experimental plates were conducted using a Tecan Spark 10M Multimode Microplate Reader at 560 nm excitation wavelength and 590 nm emission wavelength. For all resazurin assays, the percentage inhibition was calculated as described by van Rensburg et al. ([53]). All experiments were performed in triplicate, with independent biological duplicates. […] Dose-response curves (nonlinear regression using equation 1) were processed as described by Rautenbach et al. ([17]) (also see description above), and IC50 values were deduced from the best-fit sigmoidal curves (R^2 ≥ 0.98). Statistical analyses were done by comparing W2-FL10 IC50, in the presence of Ca^2+ and Mg^2+, in the presence of DOPG, and in the presence of LTA toward the control condition each of the three S. aureus strains using one-way analysis of variance (ANOVA) with Bonferroni’s post hoc test.

[2] = test system: S. aureus ATCC 25923; assay: Membrane depolarization assay, DiSC3(5)
Experimental: (§1) The membrane depolarization capability (ability to disrupt membrane potential) of the W2-FL10 against S. aureus ATCC 25923, S. aureus RN4220, or MRSA Xen 30 was determined using the voltage-sensitive fluorescent probe, DiSC3(5) ([20]). Briefly, black 96-well plates were prepared with W2-FL10 at 12.5 µg/mL and 25 µg/mL, while 4 and 8 µg/mL of melittin were used as a positive depolarization control, and the plates were air dried as described in the “Antibacterial activity: broth microdilution assay” section. The S. aureus strains were inoculated into MHB and grown to the mid-log phase (OD600 of 0.5–0.6). Cells were harvested by centrifugation at 3,000 rpm for 10 min and resuspended in HEPES buffer (5 mM, pH 7.4, containing 20 mM glucose; 100 mM KCl) to OD600 of 0.05. Thereafter, DiSC3(5) (stock concentration of 400 µM in 100% DMSO) was added to the cell suspension to a final concentration of 0.4 µM, and cells were incubated in the dark at room temperature for 40 min. Cell suspensions (100 µL) were then dispensed into the wells of the black 96-well plate. Sterile broth and the OD-adjusted inoculum with DiSC3(5) were included as a non-fluorescent control, sterile broth with DiSC3(5) was included as a sterility control, and melittin was included as membrane depolarization control. All the tests were performed in triplicate, with independent duplicates. Fluorometric readings of the plate were conducted at 1 min intervals over 12 min (readings began 60 s after cells were added to the plates) using a Tecan Spark at 622 nm excitation wavelength and 670 nm emission wavelength. Statistical comparison of the kinetic trends elicited by the treatment with peptide with the control (cells alone) was done using two-way ANOVA with Bonferroni’s post hoc test.

[3] = test system: MRSA Xen 30; assay: Membrane depolarization assay, DiSC3(5)
Experimental: as §1

[4] = test system: S. aureus RN4220; assay: Membrane depolarization assay, DiSC3(5)
Experimental: as §1

## CCCCCCCC1CC(=O)N[C@H](CC(C)C)C(=O)N[C@@H](CO)C(=O)N[C@@H]([C@@H](C)O)C(=O)N[C@H](Cc2ccccc2)C(=O)N[C@@H](CC(C)C)C(=O)O1 (stereo partly shown) [W2-FL10, serrawettin W2-FL10]
[1]; LTA 100 µg/mL vs control, P < 0.001
  increase in the IC50 in the presence of LTA: twofold
[1]; Ca2+ and Mg2+ (CA-MHB)
  ICF: 6.3
[1]; Ca2+ and Mg2+ (CA-MHB), n = 3
  IC50 ± SE: 10 µg/mL (≈ 13.7 µM)
  MIC ± SE: 25.0 ± 0.0 µg/mL (≈ 34.2 µM)
[1]; Control (MHB)
  ICF: 3.6
[1]; Control (MHB), 24 h 37°C, n = 4
  MIC ± SE: 25.0 ± 0.0 µg/mL (≈ 34.2 µM)
[1]; Control (MHB), n = 4
  IC50 ± SE: 13.2 µg/mL (≈ 18 µM)
[1]; DOPG 100 µg/mL
  ICF: 2.2
[1]; DOPG 100 µg/mL, n = 3
  IC50 ± SE: 44.6 µg/mL (≈ 60.9 µM)
  MIC ± SE: 66.7 ± 16.7 µg/mL (≈ 91.1 µM)
[1]; LTA 100 µg/mL
  ICF: 3.5
[1]; LTA 100 µg/mL, n = 3
  IC50 ± SE: 26.8 µg/mL (≈ 36.6 µM)
[1]; LTA of S. aureus 100 µg/mL, n = 3
  MIC ± SE: 50.0 ± 0.0 µg/mL (≈ 68.3 µM)
[2]; 12.5 µg/mL, up to 720 s (Fig. 4A)
  increase in DiSC3(5) fluorescent signal, in words: negligible
[2]; 25 µg/mL
  time at which the DiSC3(5) fluorescent signal doubled: 660 s
[3]; 12.5 µg/mL, up to 720 s
  depolarization, in words: appreciable depolarization
[3]; 25 µg/mL
  time at which the DiSC3(5) fluorescent signal doubled: 420 s
[4]; 12.5 µg/mL, up to 720 s (Fig. 4C)
  increase in DiSC3(5) fluorescent signal, in words: negligible
[4]; 25 µg/mL
  time at which the DiSC3(5) fluorescent signal doubled: 480 s
